According to US11376306B2, “Peptides and uses therefor as antiviral agents” (priority 2017, dated 2022):
Positions of bridges follow the written chain, without caps; N, C: chain ends. Non-standard residues stand in square brackets, D forms with d. Residues, ends and D or L forms follow the SMILES beside them.

Tests used:
RSV A2 = experiment: Cytopathic effect (CPE) assay, RSV A2 on Hep-2 cells; type: cell-based, Respiratory syncytial virus; conditions: CPE assay on Hep-2 cells, MOI 0.02, 5 days
Protocol: FIG. 1: Effect of H-RRKKcwwftfiac-OH (PSP VI A1) against RSV A2 in vitro. The ability of the peptide to inhibit the replication of RSV A2 was determined by CPE assay on Hep-2 cells. Experiments were done in triplicates and carried out in the presence of DMSO or increasing concentration of test compound.
(§1) Cytopathic effect (CPE) assay for HSV, RSV and CMV: Appropriate cells were seeded into 96 well plates and incubated overnight until they reached ˜70% confluency. Viruses were treated with various concentrations of peptide or vehicle for 90 minutes at 4° C. and added on to the confluent monolayer of cells for the rest of the assay. At the end of the incubation period, the viability of the cells was determined by adding MTT reagent and incubating the plates at 37° C. for 2-4 hours at 5% CO2. After the incubation, 100% isopropanol was added to solubilise the formazan crystals and the absorbance was recorded at 540 nm subtracting the background at 620 nm.
(§2) Pauwels formula (shown below) was used to calculate the percent cell protection achieved by the positive control or test compounds.
(§3) Percent cell protection=([ODt]virus−[ODc]virus/[ODc]mock−[ODc]virus)×100
(§4) These percentages were used to determine the ECso which were calculated by non-linear regression analysis with IDBS XLFit Excel Add-in Version 5.4.0.8

HSV-2 = experiment: Cytopathic effect (CPE) assay, HSV-2 on Vero cells; type: cell-based, Herpes Simplex Virus; conditions: MOI 0.02, 4 days
Protocol: FIG. 3: Effect of PSP VI A1 against HSV-2 in vitro. The ability of the peptide to inhibit the replication of HSV was determined by CPE assay on Vero cells. Experiments were done in triplicates and carried out in the presence of DMSO or increasing concentration of test compound.
as §1, §2, §3, §4

CMV AD169 = experiment: Cytopathic effect (CPE) assay, CMV AD169 on HFFF-2 cells; type: cell-based, Cytomegalovirus; conditions: CPE assay on HFFF-2 cells, MOI 0.006, 14 days
Protocol: FIG. 5: Effect of PSP VI A1 against CMV in vitro. The ability of the peptide to inhibit the replication of CMV was determined by CPE assay on HFFF-2 cells. Experiments were done in triplicates and carried out in the presence of DMSO or increasing concentration of test compound.
as §1, §2, §3, §4

HIV-1 92UG029 = type: cell-based, Human Immunodeficiency Virus
Protocol: FIG. 7: Effect of PSP VI A1 against HIV-1 92UG029 in vitro. The ability of the peptide to inhibit the replication of HIV was determined by reverse transcriptase assay on PBMCs. Experiments were carried out in the presence of DMSO or increasing concentration of peptide. Results are presented as mean value of triplicate measurements.
Anti-HIV Efficacy Evaluation in Fresh Human PBMCs: PBMCs were infected with various concentrations of peptide treated viruses and incubated at 37° C., 5% CO2 for seven days. After this incubation, the cells were centrifuged down and the supernatants were collected for reverse transcriptase activity (RT) assay. The cytotoxic effects of the compounds were studied with the addition of MTS to the cells following the removal of the supernatant. Data analysis for IC50 and TC50 was done by the CRO with their in house computer program.
Reverse transcriptase activity assay: Reverse transcriptase (RT) assay was carried out in a microtiter plate. Briefly Tritiated thymidine triphosphate (3H-TTP, 80 Ci/mmol, NEN;(GE Healthcare) was prepared as a stock solution by combining 150 μL poly rA (20 mg/mL) with 0.5 mL oligo dT (20 units/mL) and 5.35 mL sterile dH2O. Fresh RT reaction buffer was prepared with 125 μL 1.0 M EGTA, 125 μL dH2O, 125 μL 20% Triton X100, 50 μL 1.0 M Tris (pH 7.4), 50 μL 1.0 M DTT, and 40 μL 1.0 M MgCl2. The final reaction mixture was obtained by mixing 1 part of 3H-TTP, 4 parts dH2O, 2.5 parts poly rA:oligo dT stock and 2.5 parts reaction buffer. Ten microliters of this reaction mixture was added to the microtiter plate and 15 μL of virus containing supernatant is added and mixed. Then the plate was incubated at 37° C. for 60 minutes. After the incubation, the reaction volume was spotted onto DE81 filter-mats (Wallac), washed extensively with 5% sodium phosphate buffer or 2× SSC (Life Technologies), then in distilled water which was followed by 70% ethanol wash and air drying. Standard liquid scintillation techniques were used to quantify the incorporated radioactivity (counts per minute, CPM).

[1] = Cytotoxicity Assay 2 (CellTiter 96 AQueous One) on MDCK cells; type: cell-based; conditions: dog, 0.1-100 μM, no significant toxicity, read-out: CE50 (Cytotoxic Effect 50)
Protocol: (§5) Cytotoxicity Assay 2: MDCK cells or A549 cells (˜5000 cells/well) are grown overnight on 96 well plates. The media is replaced by serially diluted peptides and incubated again for 24/48 h. The culture medium is removed and 20 μl of CellTiter 96® AQueous One Solution […] (Promega, Wis., USA) is added and incubated at 37° C. for 2 h. The optical density is measured at 490 nm in an microplate reader (iMARK, BioRad, USA).
(§6) Cytotoxic effects of anti-viral peptides on MDCK cells or A549 cells: The cytotoxic effects of anti-viral peptides are shown in FIG. 12 and FIG. 13 which are assessed as explained in Example 1. Briefly, the MDCK cells/A549 cells are treated with either 0 μM peptide (Mock) or increasing concentrations (i.e., 0.1 μM, 0.3 μM, 1 μM, 3 μM, 10 μM, 30 μM and 100 μM) of PSP V A19 and PSP VI A1 and the cell death is determined by 48 hours post infection by a cytotoxicity assay with CellTiter 96® AQueous One Solution cell proliferation assay kit (Promega, USA) as explained by manufacturer. The results are normalized to the mock treated cells.

[2] = Cytotoxicity Assay 2 (CellTiter 96 AQueous One) on A549 cells; type: cell-based; conditions: human, 0.1-100 μM, no significant toxicity, read-out: CE50 (Cytotoxic Effect 50)
Protocol: as §5, §6

| Compound | EC50 (RSV A2) [µM] | EC50 (HSV-2) [µM] | EC50 (CMV AD169) [µM] | IC50 (HIV-1 92UG029) [µM] | CC50 at 48 h [1] [µM] | CC50 at 48 h [2] [µM] |
| --- | --- | --- | --- | --- | --- | --- |
| CC[C@@H](C)[C@H]1NC(=O)[C@@H](Cc2ccccc2)NC(=O)[C@@H]([C@H](C)O)NC(=O)[C@@H](Cc2ccccc2)NC(=O)[C@@H](Cc2c[nH]c3ccccc23)NC(=O)[C@@H]([C@H](C)O)NC(=O)[C@H](NC(=O)[C@H](CCCCN)NC(=O)[C@H](CCCCN)NC(=O)[C@H](CCCNC(=N)N)NC(=O)[C@@H](N)CCCNC(=N)N)CSSC[C@H](C(=O)O)NC(=O)[C@@H](CC(N)=O)NC1=O [PSP IV A17, H-RRKKctwftfinc-OH] (H-RRKK[dC][dT][dW][dF][dT][dF][dI][dN][dC]-OH; disulfide 5-13) | 12.6 | ~30 | 18.9 |  |  |  |
| CC[C@@H](C)[C@@H](NC(=O)[C@@H](Cc1ccccc1)NC(=O)[C@H](NC(=O)[C@@H](Cc1ccccc1)NC(=O)[C@@H](Cc1c[nH]c2ccccc12)NC(=O)[C@H](NC(=O)[C@H](CCCCN)NC(=O)[C@H](CCCCN)NC(=O)[C@H](CCCNC(=N)N)NC(=O)[C@@H](N)CCCNC(=N)N)[C@H](C)O)[C@H](C)O)C(=O)N[C@H](CC(N)=O)C(=O)O [PSP IV A17-LS, H-RRKKtwftfin-OH] (H-RRKK[dT][dW][dF][dT][dF][dI][dN]-OH) |  |  |  | 79.1 |  |  |
| CC[C@@H](C)[C@H]1NC(=O)[C@@H](Cc2ccccc2)NC(=O)[C@@H]([C@H](C)O)NC(=O)[C@@H](Cc2ccccc2)NC(=O)[C@@H](Cc2c[nH]c3ccccc23)NC(=O)[C@@H](Cc2c[nH]c3ccccc23)NC(=O)[C@H](NC(=O)[C@H](CCCCN)NC(=O)[C@H](CCCCN)NC(=O)[C@H](CCCNC(=N)N)NC(=O)[C@@H](N)CCCNC(=N)N)CSSC[C@H](C(=O)O)NC(=O)[C@@H](CC(N)=O)NC1=O [PSP V A19, H-RRKKcwwftfinc-OH] (H-RRKK[dC][dW][dW][dF][dT][dF][dI][dN][dC]-OH; disulfide 5-13) |  |  |  |  | > 30 | > 30 |
| CC[C@@H](C)[C@H]1NC(=O)[C@@H](Cc2ccccc2)NC(=O)[C@@H]([C@H](C)O)NC(=O)[C@@H](Cc2ccccc2)NC(=O)[C@@H](Cc2c[nH]c3ccccc23)NC(=O)[C@@H](Cc2c[nH]c3ccccc23)NC(=O)[C@H](N)CSSC[C@H](C(=O)O)NC(=O)[C@@H](CC(N)=O)NC1=O [PSP V A19-C, H-cwwftfinc-OH] (H-[dC][dW][dW][dF][dT][dF][dI][dN][dC]-OH; disulfide 1-9) |  |  |  | 66.5 |  |  |
| CC[C@@H](C)[C@H]1NC(=O)[C@@H](Cc2ccccc2)NC(=O)[C@@H]([C@H](C)O)NC(=O)[C@@H](Cc2ccccc2)NC(=O)[C@@H](Cc2c[nH]c3ccccc23)NC(=O)[C@@H](Cc2c[nH]c3ccccc23)NC(=O)[C@H](NC(=O)[C@H](CCCCN)NC(=O)[C@H](CCCCN)NC(=O)[C@H](CCCNC(=N)N)NC(=O)[C@@H](N)CCCNC(=N)N)CSSC[C@H](C(=O)O)NC(=O)[C@@H](C)NC1=O [PSP VI A1, H-RRKKcwwftfiac-OH] (H-RRKK[dC][dW][dW][dF][dT][dF][dI][dA][dC]-OH; disulfide 5-13) | 17.8 | ~30 | 13.8 | 60.8 | > 30 | > 30 |
